For one series, the system named is Pieris rassicae. Details: method as in Onkokesung et al. (2014). The note with it: applied exogenously at 100 µM; ref Onkokesung et al. (2014); cited from earlier work.
Another series deals with Anticarsia gemmatalis. Further details: method as in Salvador et al. (2010). The note with it: 0.65% (mg/ml); ref Salvador et al. (2010); cited from earlier work.
For series [1] the following is noted: cited from earlier work.
For series [2], the system named is Helicoverpa armigera. Further details: method as in Jadhav et al. (2012). The note with it: 1 µg/ml; ref Jadhav et al. (2012); cited from earlier work.
In another series the test system is Acanthoscelides obtectus. Details: method as in Regnault-Roger et al. (2004). The note with it: adults, in vitro bioassay; ref Regnault-Roger et al. (2004); cited from earlier work.
A further series relates to Helicoverpa zea. Details: method as in Simmonds (2003). Conditions: 10^−3 M; ref Simmonds (2003); cited from earlier work.
Series [3] is described as follows: Solubility in natural deep eutectic solvents (saturated solutions, UV-VIS). The format is physicochemical. The method, then:
As an extension of these studies, we have investigated the solubility of six insecticidal metabolites in a variety of NADES. The solvent selection framework consisted of the following steps: • Preliminary solvent screening: a pre-selected set of 20 NADES was used as a starting point to identify and rank potential NADES candidates (Table 3). Selection constraints were imposed on important properties such as viscosity and stability.
• Secondary screening: solubility tests were performed to determine the best solvent for each of the metabolites. Saturated solutions, generated by adding an excess amount of each compound to different NADES, were kept under constant stirring (1100 rpm) for 24 h at 50 °C. The 20 candidates were ranked in decreasing order of solvent power. • Solubility verification: For the verification of solubilities, samples were centrifuged for 5 min at 2000 rpm and subsequently diluted suitably with methanol for spectrophotometric analysis (UV-1800 UV–VIS spectrophotometer, Shimadzu Europe GmbH, Duisburg, Germany).

A further series concerns Phyllotreta cruciferae. Further details: method as in Onyilagha et al. (2012). The note with it: 1 month old flea beetle, binary feeding bioassay; ref Onyilagha et al. (2012); cited from earlier work.
For series [4], the system named is Spodoptera litura. The note with it: 0.7–0.8 µg/ml; ref Mallikarjuna et al. (2004); cited from earlier work.
Another series relates to Lymantria dispar. Further details: method as in Beninger and Abou-Zaid (1997). Conditions: 0.05%, day 15; ref Beninger and Abou-Zaid (1997); cited from earlier work.
Series [5] has as its system Spodoptera litura. Details: method as in Jadhav et al. (2012). The note with it: 1 µg/ml; ref Jadhav et al. (2012); cited from earlier work.
Series [6] concerns Helicoverpa armigera. Further details: method as in Simmonds (2003). The note with it: 10^−3 M; ref Simmonds (2003); cited from earlier work.
Another series concerns Mamestra configurata. Details: method as in Onyilagha et al. (2004). The note with it: applied at concentration > endogenous levels, 0.05–0.45 µmol per leaf disk, choice feeding assay; ref Onyilagha et al. (2004); cited from earlier work.

With `C[C@@H]1O[C@@H](Oc2cc(O)c3c(=O)c(O[C@@H]4O[C@@H](C)[C@H](O)[C@@H](O)[C@H]4O)c(-c4ccc(O)cc4)oc3c2)[C@H](O)[C@H](O)[C@H]1O` [kaempferol 3-O-rhamnoside 7-O-rhamnoside], the Growth entry in the series on Pieris rassicae was “Growth negatively affected”.
With `C[C@@H]1O[C@@H](OC[C@H]2O[C@@H](Oc3c(-c4ccc(O)c(O)c4)oc4cc(O)cc(O)c4c3=O)[C@H](O)[C@@H](O)[C@@H]2O)[C@H](O)[C@H](O)[C@H]1O` [Rutin], in the series with Anticarsia gemmatalis, the “Larval development, amount of food consumed, pupal weight” value is “Larval development, amount of food consumed, and pupal weight were negatively influenced at 0.65% (mg/ml)”. Also, in series [1] (diluted with 5–10% of water, ref Dai et al. (2013)), the “Solubility in NADES diluted with water” value is “higher solubility”. Besides, in series [1] (ref Dai et al. (2013, 2015)), the “Solubility in NADES compared to aqueous solubility” value is “significantly increased”. Moreover, the “Feeding and larval growth” value with Helicoverpa armigera [2] is on record as “Cessation of feeding inhibits larval growth (1 µg/ml)”. Further, the “Knockdown effect (mobility and mortality)” value in the series on Acanthoscelides obtectus was “Knockdown effect in bioassay: reduced mobility and increased mortality of adults”. Moreover, the Feeding deterrence entry with Helicoverpa zea is on record as “Feeding deterrent at 10^−3 M”; with Phyllotreta cruciferae it was “Feeding deterrent of 1 month old flea beetle (binary feeding bioassay)”; with Helicoverpa armigera [6], “Feeding deterrent at 10^−3 M”. In series [3] (1,2-propanediol: choline chloride: water (1:1:3), water 20.04%, 24 h at 50 °C, mean ± SD, n = 3), this compound displayed a Solubility of 18.46 ± 0.67 mg/g. In addition, the “Solubility increase compared to water” value in series [3] (PCH (1:1:3) versus water (Tables 2, 4)) is on record as “fivefold”. The Development result with Spodoptera litura [4] is recorded as “Developmental retardation”. Moreover, the Larval mortality in the series on Spodoptera litura [4] was over 60%. Besides, in the series on Lymantria dispar, the Larval weight reduction result is “Larval growth inhibitor. Larval weight reduced by 45% at 0.05% at day 15”. Moreover, in the series with Spodoptera litura [5], the “Larval development, pupal mortality, adult malformation” value was “Larval development arrested, increased pupal mortality and malformation of adults at 1 µg/ml”.
On to `O=c1c(O[C@@H]2O[C@H](CO)[C@@H](O)[C@H](O)[C@H]2O)c(-c2ccc(O)cc2)oc2cc(O[C@@H]3O[C@H](CO)[C@@H](O)[C@H](O)[C@H]3O)cc(O)c12` [Kaempferol-3,7-diglucoside], for which the Feeding deterrence result with Mamestra configurata was “Kaempferol-3,7-diglucoside acts as feeding deterrent when applied at concentration > endogenous levels; 0.05–0.45 µmol per leaf disk (choice feeding assay)”.

The record behind these values is publication PMC5674125, “Towards eco-friendly crop protection: natural deep eutectic solvents and defensive secondary metabolites” (Phytochemistry Reviews, 2017).
